Test results taken from PubChem BioAssay AID1963871 (Molecular Pharmacology Branch, DTP, NCI, 2024).

System: KRAS-mutant PDC multicell tumor spheroid viability
Assay: Anticancer human tumor 521955-158-R2-J5-PDC patient-derived pancreatic carcinoma cell line growth inhibition [KRAS2]
Settings: for IC50: curve of first compound; for viability, T/C: stronger effect = lower value
In short: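 Combination screen of spheroid viability in tumor-cell co-cultures with endothelial (HUVEC) and mesenchymal stem cell stroma. Each agent was tested in half-log dilutions, topping at clinical Cmax or at 10 microM without a known Cmax.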

[1] = second compound 0.1 µM, first compound 0.00316 µM
[2] = second compound 0.1 µM, first compound 0.01 µM
[3] = second compound 0.1 µM, first compound 0.0316 µM
[4] = second compound 0.1 µM, first compound 0.1 µM
[5] = second compound 0.316 µM, first compound 0.00316 µM
[6] = second compound 0.316 µM, first compound 0.01 µM
[7] = second compound 0.316 µM, first compound 0.0316 µM
[8] = second compound 0.316 µM, first compound 0.1 µM
[9] = second compound 1 µM, first compound 0.00316 µM
[10] = second compound 1 µM, first compound 0.01 µM
[11] = second compound 1 µM, first compound 0.0316 µM
[12] = second compound 1 µM, first compound 0.1 µM
[13] = second compound 3.16 µM, first compound 0.00316 µM
[14] = second compound 3.16 µM, first compound 0.01 µM
[15] = second compound 3.16 µM, first compound 0.0316 µM
[16] = second compound 3.16 µM, first compound 0.1 µM
[17] = second compound 10 µM, first compound 0.00316 µM
[18] = second compound 10 µM, first compound 0.01 µM
[19] = second compound 10 µM, first compound 0.0316 µM
[20] = second compound 10 µM, first compound 0.1 µM
[21] = second compound 0.1 µM, first compound 0.316 µM
[22] = second compound 0.1 µM, first compound 1 µM
[23] = second compound 0.1 µM, first compound 3.16 µM
[24] = second compound 0.316 µM, first compound 0.316 µM
[25] = second compound 0.316 µM, first compound 1 µM
[26] = second compound 0.316 µM, first compound 3.16 µM
[27] = second compound 1 µM, first compound 0.316 µM
[28] = second compound 1 µM, first compound 1 µM
[29] = second compound 1 µM, first compound 3.16 µM
[30] = second compound 3.16 µM, first compound 0.316 µM
[31] = second compound 3.16 µM, first compound 1 µM
[32] = second compound 3.16 µM, first compound 3.16 µM
[33] = second compound 10 µM, first compound 0.316 µM
[34] = second compound 10 µM, first compound 1 µM
[35] = second compound 10 µM, first compound 3.16 µM
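Also: viability read after seven days of drug exposure.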

Row | SMILES | IC50 (second compound 0.1 µM) [µM] | IC50 (second compound 0.316 µM) [µM] | IC50 (second compound 1 µM) [µM] | IC50 (second compound 3.16 µM) [µM] | IC50 (second compound 10 µM) [µM] | viability, T/C [2] [%] | viability, T/C [3] [%] | viability, T/C [4] [%] | viability, T/C [6] [%] | viability, T/C [7] [%] | viability, T/C [8] [%] | viability, T/C [10] [%] | viability, T/C [11] [%] | viability, T/C [12] [%] | viability, T/C [14] [%] | viability, T/C [15] [%] | viability, T/C [16] [%] | viability, T/C [19] [%] | viability, T/C [20] [%] | viability, T/C [21] [%] | also measured
1 | Cn1ncnc1[C@H]1c2n[nH]c(=O)c3cc(F)cc(c23)N[C@@H]1c1ccc(F)cc1 + CC1OCC2(CCN(c3cnc(Sc4ccnc(N)c4Cl)c(N)n3)CC2)C1N | > 0.1 | > 0.1 | 0.0036 | < 0.000316 | < 0.000316 | 63.6 | 63.7 | 53.3 | 55.6 | 46.6 | 55.1 | 45 | 45.4 | 51.4 | 44.5 | 41.9 | 41.8 | 37.9 | 40 |  | viability, T/C (second compound 0.1 µM, first compound 0.000316 µM): 72.5%; viability, T/C (second compound 0.1 µM, first compound 0.001 µM): 75%; viability, T/C [1]: 63.8%; viability, T/C (second compound 0.316 µM, first compound 0.000316 µM): 58%; viability, T/C (second compound 0.316 µM, first compound 0.001 µM): 58.2%; viability, T/C [5]: 61.5%; viability, T/C (second compound 1 µM, first compound 0.000316 µM): 56.7%; viability, T/C (second compound 1 µM, first compound 0.001 µM): 53.4%; viability, T/C [9]: 52.7%; viability, T/C (second compound 3.16 µM, first compound 0.000316 µM): 46.4%; viability, T/C (second compound 3.16 µM, first compound 0.001 µM): 44.4%; viability, T/C [13]: 46.5%; viability, T/C (second compound 10 µM, first compound 0.000316 µM): 43.6%; viability, T/C (second compound 10 µM, first compound 0.001 µM): 47.5%; viability, T/C [17]: 46.5%; viability, T/C [18]: 38.5%
2 | CC(=O)OC12COC1CC(O)C1(C)C(=O)C(O)C3=C(C)C(OC(=O)C(O)C(NC(=O)OC(C)(C)C)c4ccccc4)CC(O)(C(OC(=O)c4ccccc4)C21)C3(C)C (stereo not given) + CNCc1ccccc1-c1csc(C(C)Nc2nc(C)nc3cc(OC)c(OC)cc23)c1 | < 0.01 | < 0.01 | < 0.01 | < 0.01 | < 0.01 | 28.2 | 16.2 | 15.3 | 20.4 | 16.6 | 16.7 | 23 | 13.2 | 13.2 | 0.16 | 13.9 | 0.05 | 0.14 | 0.11 | 14.8 | viability, T/C [22]: 16.6%; viability, T/C [23]: 20.3%; viability, T/C [24]: 15.8%; viability, T/C [25]: 19.6%; viability, T/C [26]: 23.6%; viability, T/C [27]: 13.2%; viability, T/C [28]: 19.9%; viability, T/C [29]: 20%; viability, T/C [30]: 0.05%; viability, T/C [31]: 0.1%; viability, T/C [32]: 17%; viability, T/C [18]: 0.17%; viability, T/C [33]: 0.11%; viability, T/C [34]: 0.12%; viability, T/C [35]: 0.34%
3 | CCN1CCN(Cc2ccc(Nc3ncc(F)c(-c4cc(F)c5nc(C)n(C(C)C)c5c4)n3)nc2)CC1 + CNCc1ccccc1-c1csc(C(C)Nc2nc(C)nc3cc(OC)c(OC)cc23)c1 | > 1 | > 1 | 0.627 | < 0.00316 | < 0.00316 | 97.5 | 94.4 | 89.5 | 108 | 89.6 | 107 | 111 | 117 | 95.3 | 0.33 | 0.25 | 0.25 | 0.29 | 0.24 | 108 | viability, T/C [1]: 107%; viability, T/C [22]: 94.9%; viability, T/C [5]: 120%; viability, T/C [24]: 103%; viability, T/C [25]: 93.4%; viability, T/C [9]: 116%; viability, T/C [27]: 119%; viability, T/C [28]: 7.8%; viability, T/C [13]: 2.02%; viability, T/C [30]: 0.17%; viability, T/C [31]: 0.6%; viability, T/C [17]: 0.21%; viability, T/C [18]: 0.26%; viability, T/C [33]: 0.21%; viability, T/C [34]: 0.26%
4 | CC1COCCN1c1cc(-c2ccnn2C)c2ccnc(-c3ccn[nH]3)c2n1 (stereo not given) + COc1cc2nc(C)nc(NC(C)c3cc(N)cc(C(F)(F)F)c3)c2cc1OC1CCOC1 | 0.0214 | 0.0217 | 0.0214 | 0.023 | < 0.01 | 85.3 | 31.8 | 9.64 | 85 | 33 | 8.19 | 93.4 | 27.7 | 10.1 | 97.4 | 31.6 | 7.75 | 9.76 | 4.43 | 12.1 | viability, T/C [22]: 16.3%; viability, T/C [23]: 20.9%; viability, T/C [24]: 10.6%; viability, T/C [25]: 15.9%; viability, T/C [26]: 22.8%; viability, T/C [27]: 11.7%; viability, T/C [28]: 15.6%; viability, T/C [29]: 21.9%; viability, T/C [30]: 10.1%; viability, T/C [31]: 16.6%; viability, T/C [32]: 23.1%; viability, T/C [18]: 39.6%; viability, T/C [33]: 7.6%; viability, T/C [34]: 16%; viability, T/C [35]: 12.9%
5 | CC1(C)CCC(CN2CCN(c3ccc(C(=O)NS(=O)(=O)c4ccc(NCC5CCOCC5)c([N+](=O)[O-])c4)c(Oc4cnc5[nH]ccc5c4)c3)CC2)=C(c2ccc(Cl)cc2)C1 + C=CC(=O)N1CCN(c2nc(=O)n(-c3c(C)ccnc3C(C)C)c3nc(-c4c(O)cccc4F)c(F)cc23)C(C)C1 | 5.91 | 5.02 | 3.69 | 3.46 | 1.94 |  | 100 | 116 |  | 96 | 110 |  | 114 | 104 |  | 90.9 | 102 | 75.9 | 68.8 | 106 | viability, T/C [22]: 109%; viability, T/C [23]: 92.3%; viability, T/C (second compound 0.1 µM, first compound 10 µM): 14.3%; viability, T/C [24]: 106%; viability, T/C [25]: 112%; viability, T/C [26]: 76.1%; viability, T/C (second compound 0.316 µM, first compound 10 µM): 11.1%; viability, T/C [27]: 113%; viability, T/C [28]: 111%; viability, T/C [29]: 56%; viability, T/C (second compound 1 µM, first compound 10 µM): 10.2%; viability, T/C [30]: 92.4%; viability, T/C [31]: 86.9%; viability, T/C [32]: 52.3%; viability, T/C (second compound 3.16 µM, first compound 10 µM): 22.5%; viability, T/C [33]: 72.9%; viability, T/C [34]: 61.9%; viability, T/C [35]: 40.9%; viability, T/C (second compound 10 µM, first compound 10 µM): 13.3%
6 | CC1COCCN1c1cc(-c2ccnn2C)c2ccnc(-c3ccn[nH]3)c2n1 (stereo not given) + C=CC(=O)N1CCN(c2nc(OCC3CCCN3C)nc3c2CCN(c2cccc4cccc(C)c24)C3)CC1CC#N | 0.0296 | 0.0229 | 0.017 | < 0.01 |  | 109 | 46.4 | 9.45 | 96 | 32 | 7.93 | 77.8 | 17.8 | 5.2 | 10.7 | 6.36 | 4.26 |  |  | 13.1 | IC50 (second compound 0.0316 µM): 0.0306 µM; viability, T/C (second compound 0.0316 µM, first compound 0.01 µM): 95.8%; viability, T/C (second compound 0.0316 µM, first compound 0.0316 µM): 48.6%; viability, T/C (second compound 0.0316 µM, first compound 0.1 µM): 10.9%; viability, T/C (second compound 0.0316 µM, first compound 0.316 µM): 13.4%; viability, T/C (second compound 0.0316 µM, first compound 1 µM): 21.8%; viability, T/C (second compound 0.0316 µM, first compound 3.16 µM): 27.5%; viability, T/C [22]: 21.9%; viability, T/C [23]: 26.9%; viability, T/C [24]: 11.4%; viability, T/C [25]: 19.9%; viability, T/C [26]: 27.3%; viability, T/C [27]: 9.79%; viability, T/C [28]: 17.1%; viability, T/C [29]: 21.1%; viability, T/C [30]: 6.86%; viability, T/C [31]: 11%; viability, T/C [32]: 15.3%
